Assay results from paper PMC12892976, “Alkylation-based optimization of antifungal FPPS inhibitors yields a potent, broad-spectrum lipophilic zoledronate derivative” (mBio, 2025).
≈ marks a conversion by molar mass, not a printed value.

What was measured:
Rhizopus oryzae [1] = assay: checkerboard drug interaction (FICI, MICc); assay type: cell-based;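 also: simplified diagonal checkerboard screen pairing antifungals with FPPS inhibitors, FICI calculated under the Loewe additivity model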
Experimental: (§1) Drug interactions between antifungals and FPPS inhibitors were investigated using a simplified checkerboard diagonal screening method ([45]). […] FICIs were determined according to the Loewe additivity model ([17]).

Nannizzia nana = assay: checkerboard drug interaction (FICI, MICc); assay type: cell-based;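 also: simplified diagonal checkerboard screen pairing antifungals with FPPS inhibitors, FICI calculated under the Loewe additivity model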
Experimental: as §1

Lomentospora prolificans [2] = assay: MIC broth microdilution (CLSI); assay type: cell-based; conditions: Lomentospora prolificans 80-16-101-2445
Experimental: (§2) Antifungal susceptibility was determined by broth microdilution according to the CLSI guidelines described in M27-Ed4 ([16]).

Fusarium oxysporum = assay: MIC broth microdilution (CLSI); assay type: cell-based; conditions: Fusarium oxysporum 07-200-3012
Experimental: as §2

Trichophyton tonsurans = assay: MIC broth microdilution (CLSI); conditions: Trichophyton tonsurans R-168
Experimental: as §2

Pichia kudriavzevii [3] = assay: MIC broth microdilution (CLSI); assay type: cell-based; conditions: Pichia kudriavzavii ATCC 6258
Experimental: Antifungal susceptibility was determined by broth microdilution according to the CLSI guidelines described in M27-Ed4 ([16]). […] MFC was determined by back-plating drug-treated cultures from MIC broths onto SDA plates. The MFC was defined as the lowest concentration from which no colonies could be cultured.

[4] = test system: Aspergillus frankstonensis; assay: MIC broth microdilution (CLSI); assay type: cell-based; conditions: Aspergillus frankstonensis DTO 341-F3
Experimental: as §2

Pichia kudriavzevii [5] = assay: checkerboard drug interaction (FICI, MICc); assay type: cell-based;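 also: antifungal plus FPPS inhibitor interactions tested in a simplified diagonal checkerboard screen, with FICI calculated under the Loewe additivity model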
Experimental: as §1

Aspergillus felis [6] = assay: checkerboard drug interaction (FICI, MICc); assay type: cell-based;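 also: simplified diagonal checkerboard screen pairing antifungals with FPPS inhibitors, FICI calculated under the Loewe additivity model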
Experimental: as §1

Lomentospora prolificans [7] = assay: checkerboard drug interaction (FICI, MICc);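 also: simplified diagonal checkerboard screen pairing antifungals with FPPS inhibitors, FICI calculated under the Loewe additivity model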
Experimental: as §1

[8] = test system: Cryptococcus bacillisporus; assay: checkerboard drug interaction (FICI, MICc); assay type: cell-based;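 also: interaction of antifungals with FPPS inhibitors assessed by a simplified diagonal checkerboard screen, with FICI computed under the Loewe additivity model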
Experimental: as §1

Candida auris = assay: MIC broth microdilution (CLSI); assay type: cell-based; conditions: Candida auris CDC-0384
Experimental: as §2

Aspergillus terreus = assay: checkerboard drug interaction (FICI, MICc); assay type: cell-based;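 also: simplified diagonal checkerboard screen pairing antifungals with FPPS inhibitors, FICI derived by the Loewe additivity model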
Experimental: as §1

Aspergillus felis [9] = assay: MIC broth microdilution (CLSI); assay type: cell-based; conditions: Aspergillus felis IHE87256683D6
Experimental: as §2

Aspergillus lentulus [10] = assay: MIC broth microdilution (CLSI); assay type: cell-based; conditions: Aspergillus lentulus DTO 341-G7
Experimental: as §2

Nannizzia gypsea = assay: MIC broth microdilution (CLSI); assay type: cell-based; conditions: Nannizzia gypsea R-131
Experimental: as §2

Scedosporium apiospermum = assay: MIC broth microdilution (CLSI); assay type: cell-based; conditions: Scedosporium apiospermum 04-16-022-2268
Experimental: as §2

Rhizopus oryzae [11] = assay: MIC broth microdilution (CLSI); assay type: cell-based; conditions: Rhizopus oryzae 04-14-364-1703
Experimental: as §2

Candida dubliniensis = assay: MIC broth microdilution (CLSI); assay type: cell-based; conditions: Candida dubliniensis M230642
Experimental: as §2

Aspergillus lentulus [12] = assay: checkerboard drug interaction (FICI, MICc); assay type: cell-based;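 also: simplified diagonal checkerboard screen pairing antifungals with FPPS inhibitors, with the interaction index calculated under the Loewe additivity model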
Experimental: as §1

O=P(O)(O)C(O)(Cn1ccnc1)P(=O)(O)O [ZOL, zoledronate]
FICI (Rhizopus oryzae [1]; 5FC:ZOL): 3 | FICI (Rhizopus oryzae [1]; AMB:ZOL): 1.13 | FICI (Rhizopus oryzae [1]; CAS:ZOL): 0.63 | FICI (Rhizopus oryzae [1]; FLC:ZOL): 1 | FICI (Rhizopus oryzae [1]; ITR:ZOL): 1.02 | FICI (Rhizopus oryzae [1]; KET:ZOL): 0.63 | FICI (Rhizopus oryzae [1]; VOR:ZOL): 0.52 | bisphosphonate MICc (Rhizopus oryzae [1]; ZOL with 5FC): 512 | bisphosphonate MICc (Rhizopus oryzae [1]; ZOL with AMB): 64 | bisphosphonate MICc (Rhizopus oryzae [1]; ZOL with CAS): 256 | bisphosphonate MICc (Rhizopus oryzae [1]; ZOL with FLC): 256 | bisphosphonate MICc (Rhizopus oryzae [1]; ZOL with ITR): 8 | bisphosphonate MICc (Rhizopus oryzae [1]; ZOL with KET): 64 | bisphosphonate MICc (Rhizopus oryzae [1]; ZOL with VOR): 8 | FICI (Nannizzia nana; 5FC:ZOL): ≥4 | FICI (Nannizzia nana; AMB:ZOL): 1 | FICI (Nannizzia nana; CAS:ZOL): 0.75 | FICI (Nannizzia nana; FLC:ZOL): 0.5 | FICI (Nannizzia nana; ITR:ZOL): 0.65 | FICI (Nannizzia nana; KET:ZOL): 0.51 | FICI (Nannizzia nana; VOR:ZOL): 1.1 | bisphosphonate MICc (Nannizzia nana; ZOL with 5FC): 256 | bisphosphonate MICc (Nannizzia nana; ZOL with AMB): 64 | bisphosphonate MICc (Nannizzia nana; ZOL with CAS): 64 | bisphosphonate MICc (Nannizzia nana; ZOL with FLC): 32 | bisphosphonate MICc (Nannizzia nana; ZOL with ITR): 16 | bisphosphonate MICc (Nannizzia nana; ZOL with KET): 32 | bisphosphonate MICc (Nannizzia nana; ZOL with VOR): 8 | MIC / MEC (Lomentospora prolificans [2]): >256 µg/mL | MIC / MEC (Fusarium oxysporum): >256 µg/mL | MIC / MEC (Trichophyton tonsurans): 128 µg/mL (≈ 470 µM) | MIC / MEC (Pichia kudriavzevii [3]): 256 µg/mL (≈ 941 µM) | MIC / MEC [4]: 128 µg/mL (≈ 470 µM) | FICI (Pichia kudriavzevii [5]; 5FC:ZOL): 1.13 | FICI (Pichia kudriavzevii [5]; AMB:ZOL): 0.63 | FICI (Pichia kudriavzevii [5]; CAS:ZOL): 0.56 | FICI (Pichia kudriavzevii [5]; FLC:ZOL): 0.67 | FICI (Pichia kudriavzevii [5]; ITR:ZOL): 0.5 | FICI (Pichia kudriavzevii [5]; KET:ZOL): 0.38 | FICI (Pichia kudriavzevii [5]; VOR:ZOL): 2.25 | bisphosphonate MICc (Pichia kudriavzevii [5]; ZOL with 5FC): 256 | bisphosphonate MICc (Pichia kudriavzevii [5]; ZOL with AMB): 32 | bisphosphonate MICc (Pichia kudriavzevii [5]; ZOL with CAS): 16 | bisphosphonate MICc (Pichia kudriavzevii [5]; ZOL with FLC): 128 | bisphosphonate MICc (Pichia kudriavzevii [5]; ZOL with ITR): 64 | bisphosphonate MICc (Pichia kudriavzevii [5]; ZOL with KET): 64 | bisphosphonate MICc (Pichia kudriavzevii [5]; ZOL with VOR): 64 | FICI (Aspergillus felis [6]; 5FC:ZOL): 1.5 | FICI (Aspergillus felis [6]; AMB:ZOL): 2.5 | FICI (Aspergillus felis [6]; CAS:ZOL): 2.5 | FICI (Aspergillus felis [6]; FLC:ZOL): 1.03 | FICI (Aspergillus felis [6]; ITR:ZOL): 0.52 | FICI (Aspergillus felis [6]; KET:ZOL): 0.63 | FICI (Aspergillus felis [6]; VOR:ZOL): 0.38 | bisphosphonate MICc (Aspergillus felis [6]; ZOL with 5FC): 512 | bisphosphonate MICc (Aspergillus felis [6]; ZOL with AMB): 256 | bisphosphonate MICc (Aspergillus felis [6]; ZOL with CAS): 256 | bisphosphonate MICc (Aspergillus felis [6]; ZOL with FLC): 16 | bisphosphonate MICc (Aspergillus felis [6]; ZOL with ITR): 8 | bisphosphonate MICc (Aspergillus felis [6]; ZOL with KET): 64 | bisphosphonate MICc (Aspergillus felis [6]; ZOL with VOR): 64 | FICI (Lomentospora prolificans [7]; 5FC:ZOL): 2.5 | FICI (Lomentospora prolificans [7]; AMB:ZOL): 0.75 | FICI (Lomentospora prolificans [7]; CAS:ZOL): 3 | FICI (Lomentospora prolificans [7]; FLC:ZOL): 1.13 | FICI (Lomentospora prolificans [7]; ITR:ZOL): 0.63 | FICI (Lomentospora prolificans [7]; KET:ZOL): 1 | FICI (Lomentospora prolificans [7]; VOR:ZOL): 1.06 | bisphosphonate MICc (Lomentospora prolificans [7]; ZOL with 5FC): 256 | bisphosphonate MICc (Lomentospora prolificans [7]; ZOL with AMB): 256 | bisphosphonate MICc (Lomentospora prolificans [7]; ZOL with CAS): 512 | bisphosphonate MICc (Lomentospora prolificans [7]; ZOL with FLC): 64 | bisphosphonate MICc (Lomentospora prolificans [7]; ZOL with ITR): 64 | bisphosphonate MICc (Lomentospora prolificans [7]; ZOL with KET): 256 | bisphosphonate MICc (Lomentospora prolificans [7]; ZOL with VOR): 32 | FICI ([8]; 5FC:ZOL): 1.03 | FICI ([8]; AMB:ZOL): 6 | FICI ([8]; CAS:ZOL): 1.13 | FICI ([8]; FLC:ZOL): 0.38 | FICI ([8]; ITR:ZOL): 1.29 | FICI ([8]; KET:ZOL): 1.02 | FICI ([8]; VOR:ZOL): 2.33 | bisphosphonate MICc ([8]; ZOL with 5FC): 128 | bisphosphonate MICc ([8]; ZOL with AMB): 256 | bisphosphonate MICc ([8]; ZOL with CAS): 16 | bisphosphonate MICc ([8]; ZOL with FLC): 32 | bisphosphonate MICc ([8]; ZOL with ITR): 32 | bisphosphonate MICc ([8]; ZOL with KET): 2 | bisphosphonate MICc ([8]; ZOL with VOR): 32 | MIC / MEC (Candida auris): 128 µg/mL (≈ 470 µM) | FICI (Aspergillus terreus; 5FC:ZOL): 1.5 | FICI (Aspergillus terreus; AMB:ZOL): 1 | FICI (Aspergillus terreus; CAS:ZOL): 1.5 | FICI (Aspergillus terreus; FLC:ZOL): 0.38 | FICI (Aspergillus terreus; ITR:ZOL): 0.51 | FICI (Aspergillus terreus; KET:ZOL): 0.25 | FICI (Aspergillus terreus; VOR:ZOL): 0.52 | bisphosphonate MICc (Aspergillus terreus; ZOL with 5FC): 128 | bisphosphonate MICc (Aspergillus terreus; ZOL with AMB): 64 | bisphosphonate MICc (Aspergillus terreus; ZOL with CAS): 64 | bisphosphonate MICc (Aspergillus terreus; ZOL with FLC): 32 | bisphosphonate MICc (Aspergillus terreus; ZOL with ITR): 32 | bisphosphonate MICc (Aspergillus terreus; ZOL with KET): 16 | bisphosphonate MICc (Aspergillus terreus; ZOL with VOR): 2 | MIC / MEC (Aspergillus felis [9]): >256 µg/mL | MIC / MEC (Aspergillus lentulus [10]): >256 µg/mL | MIC / MEC (Nannizzia gypsea): 256 µg/mL (≈ 941 µM) | MIC / MEC (Scedosporium apiospermum): 256 µg/mL (≈ 941 µM) | MIC / MEC (Rhizopus oryzae [11]): >256 µg/mL | MIC / MEC (Candida dubliniensis): 4 µg/mL (≈ 14.7 µM) | FICI (Aspergillus lentulus [12]; 5FC:ZOL): 3 | FICI (Aspergillus lentulus [12]; AMB:ZOL): 0.56 | FICI (Aspergillus lentulus [12]; CAS:ZOL): 0.63 | FICI (Aspergillus lentulus [12]; FLC:ZOL): 0.25 | FICI (Aspergillus lentulus [12]; ITR:ZOL): 0.31 | FICI (Aspergillus lentulus [12]; KET:ZOL): 0.38
